These results are taken from patent US20110172147A1, “NEUROPEPTIDE-2 RECEPTOR (Y-2R) AGONISTS” (priority 2009, published 2011).

Common to all, as to type: cell-based
One experiment addresses Y4R (Homo sapiens, UniProt P50391). Description: CaFlux Assay (FLIPR), Y4R.
The target in another experiment is T1, Y5R (Homo sapiens, UniProt Q15761).
T1 sequence (Q15761 1-445): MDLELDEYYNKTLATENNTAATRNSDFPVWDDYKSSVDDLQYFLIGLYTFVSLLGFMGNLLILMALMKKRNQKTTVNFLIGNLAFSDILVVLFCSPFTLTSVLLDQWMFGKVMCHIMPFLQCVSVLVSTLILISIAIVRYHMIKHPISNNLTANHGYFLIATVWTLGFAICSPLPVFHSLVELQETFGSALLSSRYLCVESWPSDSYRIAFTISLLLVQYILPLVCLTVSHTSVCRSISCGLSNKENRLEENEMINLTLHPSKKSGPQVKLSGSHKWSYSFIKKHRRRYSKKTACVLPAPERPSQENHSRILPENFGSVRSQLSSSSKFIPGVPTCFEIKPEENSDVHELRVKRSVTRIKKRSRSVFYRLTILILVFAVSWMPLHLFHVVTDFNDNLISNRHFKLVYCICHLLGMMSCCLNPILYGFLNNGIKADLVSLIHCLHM
Description: CaFlux Assay (FLIPR), Y5R.

Another experiment addresses T2, Y1R (Homo sapiens, UniProt P25929).
T2 sequence (P25929 1-384): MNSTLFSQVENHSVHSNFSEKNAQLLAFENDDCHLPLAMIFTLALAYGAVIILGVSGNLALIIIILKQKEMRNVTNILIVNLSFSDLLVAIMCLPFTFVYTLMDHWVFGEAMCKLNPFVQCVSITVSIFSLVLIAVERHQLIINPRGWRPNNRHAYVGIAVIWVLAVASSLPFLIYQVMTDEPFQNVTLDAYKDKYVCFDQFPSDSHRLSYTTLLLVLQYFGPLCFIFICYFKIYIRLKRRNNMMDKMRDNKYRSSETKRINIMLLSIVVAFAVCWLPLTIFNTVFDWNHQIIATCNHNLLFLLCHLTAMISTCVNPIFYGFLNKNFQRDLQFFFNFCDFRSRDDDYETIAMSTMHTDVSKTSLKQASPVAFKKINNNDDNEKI
Description: CaFlux Assay (FLIPR), Y1R.

In experiment [1] the target is T3, hNPY2R (Homo sapiens, UniProt P49146).
T3 sequence (P49146 1-381): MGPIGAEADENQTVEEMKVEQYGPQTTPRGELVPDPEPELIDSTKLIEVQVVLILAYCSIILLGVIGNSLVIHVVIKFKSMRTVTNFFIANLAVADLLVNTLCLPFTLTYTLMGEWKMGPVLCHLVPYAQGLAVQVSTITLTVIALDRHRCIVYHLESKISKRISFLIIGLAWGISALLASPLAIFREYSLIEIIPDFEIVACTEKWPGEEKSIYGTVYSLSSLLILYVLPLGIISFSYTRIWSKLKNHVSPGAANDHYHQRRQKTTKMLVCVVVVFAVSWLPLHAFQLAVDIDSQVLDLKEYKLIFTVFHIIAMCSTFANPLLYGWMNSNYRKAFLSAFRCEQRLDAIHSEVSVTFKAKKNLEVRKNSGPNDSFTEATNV
As to the kind of experiment: CaFlux Assay (FLIPR), Y2R. Further details: expressed in transfected cells; host or cells: HEK-293 stably transfected with G protein chimera Gαqi9. Put shortly:
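Calcium flux read by FLIPR in HEK-293 clones co-expressing chimeric Gαqi9 and receptor; compounds in HBSS/20 mM HEPES/0.05% BSA. Baseline-subtracted peak fluorescence, monitored 100 s after addition, is reported relative to the positive control's maximal response.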

Experiment [2] addresses T3, hNPY2R. As to the kind of experiment: cAMP Agonist Assay, HEK293/hNPY2R. More on the design: expressed in transfected cells; host or cells: HEK293/hNPY2R (G418 selection). Put shortly: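 Intracellular cAMP quantified by luminescent competitive ELISA after a 30 min room-temperature treatment of overnight-plated HEK293/hNPY2R cells with compound in medium containing 5 μM forskolin, 0.5 mM IBMX and 1.1% DMSO; four replicates per concentration.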

Chain of Y4R (P50391 whole entry): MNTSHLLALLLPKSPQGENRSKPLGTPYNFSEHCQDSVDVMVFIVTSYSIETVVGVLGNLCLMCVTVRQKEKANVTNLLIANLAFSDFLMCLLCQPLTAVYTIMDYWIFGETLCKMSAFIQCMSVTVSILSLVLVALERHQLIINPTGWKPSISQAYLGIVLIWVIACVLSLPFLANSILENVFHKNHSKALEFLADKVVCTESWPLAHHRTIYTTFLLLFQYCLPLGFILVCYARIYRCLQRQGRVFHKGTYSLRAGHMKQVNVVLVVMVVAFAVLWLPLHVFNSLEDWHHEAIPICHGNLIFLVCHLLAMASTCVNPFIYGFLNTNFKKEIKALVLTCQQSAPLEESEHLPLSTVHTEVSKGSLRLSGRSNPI

Usually EC50 stands for the concentration at which the effect is half-maximal. The low end stands for higher potency in that assay, the high end for lower potency in that assay. Take `CC[C@H](C)[C@H](NC(=O)CCCCCNC(=O)CCOCCOCCOCCOCCOCCOCCOCCOCCOCCOCCOCCOC)C(=O)N[C@@H](CCCCN)C(=O)N1CCN(c2ccc3ncn(CC(=O)N[C@@H](CCCNC(=N)N)C(=O)N[C@@H](Cc4c[nH]cn4)C(=O)N[C@@H](Cc4ccc(O)cc4)C(=O)N[C@@H](CC(C)C)C(=O)N[C@@H](CC(N)=O)C(=O)N[C@@H](Cc4c[nH]c5ccccc45)C(=O)N[C@H](C(=O)N[C@H](C(=O)N[C@@H](CCCNC(=N)N)C(=O)N[C@@H](CCC(N)=O)C(=O)N(C)[C@@H](CCCNC(=N)N)C(=O)N[C@@H](Cc4ccc(O)cc4)C(N)=O)[C@@H](C)O)C(C)C)c(=O)c3c2)CC1` [Example 18]: the EC50 on Y4R was more than 6000 nM; at Y5R it was more than 6000 nM; on Y1R, more than 6000 nM; on hNPY2R [1], 0.357 nM; at hNPY2R [2] it was 0.9 nM.
`CCCCCCCCCCCCCCCC(=O)NCCCCCC(=O)NCCCC[C@H](NC(=O)[C@@H](NC(=O)CCOCCOCCOCCOCCOCCOCCOCCOCCOCCOCCOCCOCCOCCOCCOCCOC)[C@@H](C)CC)C(=O)N1CCN(c2ccc3ncn(CC(=O)N[C@@H](CCCNC(=N)N)C(=O)N[C@@H](Cc4c[nH]cn4)C(=O)N[C@@H](Cc4ccc(O)cc4)C(=O)N[C@@H](CC(C)C)C(=O)N[C@@H](CC(N)=O)C(=O)N[C@@H](Cc4c[nH]c5ccccc45)C(=O)N[C@H](C(=O)N[C@H](C(=O)N[C@@H](CCCNC(=N)N)C(=O)N[C@@H](CCC(N)=O)C(=O)N(C)[C@@H](CCCNC(=N)N)C(=O)N[C@@H](Cc4ccc(O)cc4)C(N)=O)[C@@H](C)O)C(C)C)c(=O)c3c2)CC1` [Example 10]: the 50% effective concentration (EC50) was more than 5000 nM on Y4R; 816 nM on Y5R; more than 5000 nM at Y1R; 0.04 nM at hNPY2R [1]; 0.13 nM on hNPY2R [2].
As for `CCCCCCCCCCCCCCCC(=O)NCCCCCC(=O)NCCCC[C@H](NC(=O)[C@@H](NC(=O)CCOCCOCCOCCOCCOCCOCCOCCOC)[C@@H](C)CC)C(=O)N1CCN(c2ccc3ncn(CC(=O)N[C@@H](CCCNC(=N)N)C(=O)N[C@@H](Cc4c[nH]cn4)C(=O)N[C@@H](Cc4ccc(O)cc4)C(=O)N[C@@H](CC(C)C)C(=O)N[C@@H](CC(N)=O)C(=O)N[C@@H](Cc4c[nH]c5ccccc45)C(=O)N[C@H](C(=O)N[C@H](C(=O)N[C@@H](CCCNC(=N)N)C(=O)N[C@@H](CCC(N)=O)C(=O)N(C)[C@@H](CCCNC(=N)N)C(=O)N[C@@H](Cc4ccc(O)cc4)C(N)=O)[C@@H](C)O)C(C)C)c(=O)c3c2)CC1` [Example 8], the EC50 is more than 5000 nM at Y4R; 1760 nM on Y5R; more than 5000 nM at Y1R; 0.033 nM on hNPY2R [1]; 0.17 nM on hNPY2R [2].
As for `CCCCCCCCCCCCCCCC(=O)NCCOCCNC(=O)CCC(=O)NCCCC[C@H](NC(=O)[C@@H](NC(=O)CCOCCOCCOCCOCCOCCOCCOCCOCCOCCOCCOCCOC)[C@@H](C)CC)C(=O)N1CCN(c2ccc3ncn(CC(=O)N[C@@H](CCCNC(=N)N)C(=O)N[C@@H](Cc4c[nH]cn4)C(=O)N[C@@H](Cc4ccc(O)cc4)C(=O)N[C@@H](CC(C)C)C(=O)N[C@@H](CC(N)=O)C(=O)N[C@@H](Cc4c[nH]c5ccccc45)C(=O)N[C@H](C(=O)N[C@H](C(=O)N[C@@H](CCCNC(=N)N)C(=O)N[C@@H](CCC(N)=O)C(=O)N(C)[C@@H](CCCNC(=N)N)C(=O)N[C@@H](Cc4ccc(O)cc4)C(N)=O)[C@@H](C)O)C(C)C)c(=O)c3c2)CC1` [Example 13], the EC50 was more than 5000 nM on Y4R; 401 nM at Y5R; more than 5000 nM at Y1R; 0.055 nM at hNPY2R [1]; 0.15 nM on hNPY2R [2].
As to `CCCCCCCCCCCCCCCCCCCC(=O)N[C@@H](CCC(=O)N[C@@H](CCC(=O)NCCCC[C@H](NC(=O)[C@@H](NC(=O)CCOCCOCCOCCOCCOCCOCCOCCOCCOCCOCCOCCOCCOCCOCCOCCOC)[C@@H](C)CC)C(=O)N1CCN(c2ccc3ncn(CC(=O)N[C@@H](CCCNC(=N)N)C(=O)N[C@@H](Cc4c[nH]cn4)C(=O)N[C@@H](Cc4ccc(O)cc4)C(=O)N[C@@H](CC(C)C)C(=O)N[C@@H](CC(N)=O)C(=O)N[C@@H](Cc4c[nH]c5ccccc45)C(=O)N[C@H](C(=O)N[C@H](C(=O)N[C@@H](CCCNC(=N)N)C(=O)N[C@@H](CCC(N)=O)C(=O)N(C)[C@@H](CCCNC(=N)N)C(=O)N[C@@H](Cc4ccc(O)cc4)C(N)=O)[C@@H](C)O)C(C)C)c(=O)c3c2)CC1)C(=O)O)C(=O)O` [Example 25], the EC50 is more than 9000 nM at Y4R; 2580 nM on Y5R; more than 9000 nM at Y1R; 0.14 nM on hNPY2R [1]; 0.09 nM on hNPY2R [2]. The “Y5R FLIPR agonist character (partial agonist mark)” value on Y5R (FLIPR) is listed as “P.A”.
Regarding `CCCCCCCCCCCCCCCCCCCC(=O)N[C@@H](CCC(=O)N[C@@H](CCC(=O)N[C@H](C(=O)N[C@@H](CCCCNC(=O)CCOCCOCCOCCOCCOCCOCCOCCOCCOCCOCCOCCOCCOCCOCCOCCOCCOCCOCCOCCOCCOCCOCCOCCOC)C(=O)N1CCN(c2ccc3ncn(CC(=O)N[C@@H](CCCNC(N)=O)C(=O)N[C@@H](Cc4c[nH]cn4)C(=O)N[C@@H](Cc4ccc(O)cc4)C(=O)N[C@@H](CC(C)C)C(=O)N[C@@H](CC(N)=O)C(=O)N[C@@H](Cc4c[nH]c5ccccc45)C(=O)N[C@H](C(=O)N[C@H](C(=O)N[C@@H](CCCNC(=N)N)C(=O)N[C@@H](CCC(N)=O)C(=O)N(C)[C@@H](CCCNC(=N)N)C(=O)N[C@@H](Cc4ccc(O)cc4)C(N)=O)[C@@H](C)O)C(C)C)c(=O)c3c2)CC1)[C@@H](C)CC)C(=O)O)C(=O)O` [Example 61], the EC50 is more than 6000 nM on Y4R; more than 6000 nM at Y5R; more than 6000 nM on Y1R; 0.243 nM on hNPY2R [1]; 0.28 nM at hNPY2R [2].
For the molecule `CCCCCCCCCCCCCCCC(=O)NCCOCCNC(=O)CCC(=O)NCCCC[C@H](NC(=O)[C@@H](NC(=O)COCCOCCOCCOCCOCCOC)[C@@H](C)CC)C(=O)N1CCN(c2ccc3ncn(CC(=O)N[C@@H](CCCNC(=N)N)C(=O)N[C@@H](Cc4c[nH]cn4)C(=O)N[C@@H](Cc4ccc(O)cc4)C(=O)N[C@@H](CC(C)C)C(=O)N[C@@H](CC(N)=O)C(=O)N[C@@H](Cc4c[nH]c5ccccc45)C(=O)N[C@H](C(=O)N[C@H](C(=O)N[C@@H](CCCNC(=N)N)C(=O)N[C@@H](CCC(N)=O)C(=O)N(C)[C@@H](CCCNC(=N)N)C(=O)N[C@@H](Cc4ccc(O)cc4)C(N)=O)[C@@H](C)O)C(C)C)c(=O)c3c2)CC1` [Example 12], the EC50 was more than 5000 nM at Y4R; 527 nM on Y5R; more than 5000 nM on Y1R; 0.097 nM on hNPY2R [1]; 0.09 nM at hNPY2R [2].
On to `CCCCCCCCCCCCCCCC(=O)NCCCCCC(=O)NCCCC[C@H](NC(=O)[C@@H](NC(=O)CCOCCOCCOCCOCCOCCOCCOCCOCCOCCOCCOCCOC)[C@@H](C)CC)C(=O)N1CCN(c2ccc3ncn(CC(=O)N[C@@H](CCCNC(=N)N)C(=O)N[C@@H](Cc4c[nH]cn4)C(=O)N[C@@H](Cc4ccc(O)cc4)C(=O)N[C@@H](CC(C)C)C(=O)N[C@@H](CC(N)=O)C(=O)N[C@@H](Cc4c[nH]c5ccccc45)C(=O)N[C@H](C(=O)N[C@H](C(=O)N[C@@H](CCCNC(=N)N)C(=O)N[C@@H](CCC(N)=O)C(=O)N(C)[C@@H](CCCNC(=N)N)C(=O)N[C@@H](Cc4ccc(O)cc4)C(N)=O)[C@@H](C)O)C(C)C)c(=O)c3c2)CC1` [Example 9], for which the EC50 is more than 5000 nM at Y4R; 1030 nM on Y5R; more than 5000 nM on Y1R; 0.025 nM on hNPY2R [1]; 0.08 nM on hNPY2R [2].
